{"source": "patent US20020115642A1", "about": "“Beta-lactam antibiotics” (priority 2000, published 2002)", "assay_in_all_cases": "Susceptibility testing (MIC, modified NCCLS method)", "key": {"K. pneumoniae": {"system": "K. pneumoniae", "type": "cell-based, Klebsiella pneumoniae", "description": "(§1) The NCCLS (National Committee for Clinical Laboratory Standards) method to determine MIC's of antimicrobial compounds was modified for high-throughput screening. All stocks of tested compounds were prepared in either water or in dimethylsulfoxide (DMSO), depending on the solubility. […] Briefly 20 2-fold serial dilutions of testing compounds from the highest concentration were made in a 384-well microtiter plate. Each well was inoculated with testing bacteria in broth to a final concentration of approximately 1-1.5×10^6 cells/ml. Bacterial growth was determined by the increase of optical density at 600 nm using a microplate reader (Tecan SpectraFluor Plus)."}, "E. cloacae": {"system": "E. cloacae", "type": "cell-based, Enterobacter cloacae", "description": "as §1"}, "E. faecalis": {"system": "E. faecalis", "type": "cell-based, Enterococcus faecalis", "description": "as §1"}, "Staphylococcus aureus": {"system": "Staphylococcus aureus", "type": "cell-based", "description": "as §1"}, "P. aeruginosa": {"system": "P. aeruginosa", "type": "cell-based, Pseudomonas aeruginosa", "description": "as §1"}, "E. coli/TEM-1": {"system": "E. coli/TEM-1", "type": "cell-based, Escherichia coli", "conditions": "E. coli/Tem-1", "description": "as §1"}, "E. coli N": {"system": "E. coli N", "type": "cell-based, Escherichia coli", "conditions": "E. coli (N)", "description": "as §1"}, "E. aerogenes": {"system": "E. aerogenes", "type": "cell-based, Enterobacter aerogenes", "description": "as §1"}, "[1]": {"conditions": "Klebsiella pneumoniae, ATCC51503, K. pneumoniae ATCC 51503, read-out: MIC"}, "[2]": {"conditions": "Klebsiella pneumoniae, ATCC700721, K. pneumoniae ATCC 700721, read-out: MIC"}, "[3]": {"conditions": "Enterobacter cloacae, ATCC23355, E. cloacae ATCC 23355, read-out: MIC"}, "[4]": {"conditions": "Enterococcus faecalis, ATCC49757, E. faecalis ATCC 49757, read-out: MIC"}, "[5]": {"conditions": "Enterococcus faecalis, ATCC700802, E. faecalis ATCC 700802, read-out: MIC"}, "[6]": {"conditions": "Staphylococcus aureus, ATCC11632, S. aureus ATCC 11632, read-out: MIC"}, "[7]": {"conditions": "Staphylococcus aureus, ATCC33594, S. aureus ATCC 33594, read-out: MIC"}, "[8]": {"conditions": "Staphylococcus aureus, ATCC700260, S. aureus ATCC 700260, read-out: MIC"}, "[9]": {"conditions": "Staphylococcus aureus, ATCC700699, S. aureus ATCC 700699, read-out: MIC"}, "[10]": {"conditions": "Pseudomonas aeruginosa, ATCC21726, P. aeruginosa ATCC 21726, read-out: MIC"}, "[11]": {"conditions": "Pseudomonas aeruginosa, ATCC29872, P. aeruginosa ATCC 29872, read-out: MIC"}, "[12]": {"conditions": "Klebsiella aerogenes, ATCC35028, E. aerogenes ATCC 35028, read-out: MIC"}}, "note": "Where two headings read alike, the source gives them in different places.", "data": [{"compound": "O=C(Cn1cnnn1)Nc1ncc(CC(=O)NC2C(=O)N3C(C(=O)O)=C(COc4cc(Cl)ccc4Oc4ccc(Cl)cc4Cl)CS[C@H]23)s1", "note": "(stereo partly drawn) [Compound 43]", "values": [{"measurement": "MIC", "setting": "K. pneumoniae; K. pneumoniae ATCC 51503", "result": 32, "unit": "mg/L"}, {"measurement": "MIC", "setting": "K. pneumoniae; K. pneumoniae ATCC 700721", "result": 4, "unit": "mg/L"}, {"measurement": "MIC", "setting": "E. cloacae; E. cloacae ATCC 23355", "result": 32, "unit": "mg/L"}, {"measurement": "MIC", "setting": "E. faecalis; E. faecalis ATCC 49757", "result": 32, "unit": "mg/L"}, {"measurement": "MIC", "setting": "E. faecalis; E. faecalis ATCC 700802", "result": 32, "unit": "mg/L"}, {"measurement": "MIC", "setting": "Staphylococcus aureus; S. aureus ATCC 11632", "result": 32, "unit": "mg/L"}, {"measurement": "MIC", "setting": "Staphylococcus aureus; S. aureus ATCC 33591", "result": 0.125, "unit": "mg/L"}, {"measurement": "MIC", "setting": "Staphylococcus aureus; S. aureus ATCC 33594", "result": 0.063, "unit": "mg/L"}, {"measurement": "MIC", "setting": "Staphylococcus aureus; S. aureus ATCC 700260", "result": 8, "unit": "mg/L"}, {"measurement": "MIC", "setting": "Staphylococcus aureus; S. aureus ATCC 700699", "result": 32, "unit": "mg/L"}, {"measurement": "MIC", "setting": "P. aeruginosa; P. aeruginosa ATCC 21726", "result": ">32", "unit": "mg/L"}, {"measurement": "MIC", "setting": "P. aeruginosa; P. aeruginosa ATCC 29872", "result": ">32", "unit": "mg/L"}, {"measurement": "MIC", "setting": "E. coli/TEM-1", "result": 0.25, "unit": "mg/L"}, {"measurement": "MIC", "setting": "E. coli N", "result": 2, "unit": "mg/L"}, {"measurement": "MIC", "setting": "E. aerogenes; E. aerogenes ATCC 35028", "result": 32, "unit": "mg/L"}]}, {"compound": "O=C(O)CCC(=O)N[C@@H]1C(=O)N2C(C(=O)O)=C(COc3cc(Cl)ccc3Oc3ccc(Cl)cc3Cl)CS[C@H]12", "note": "[Compound 36]", "values": [{"measurement": "MIC", "setting": "K. pneumoniae; [1]", "result": "> 32", "unit": "mg/L"}, {"measurement": "MIC", "setting": "K. pneumoniae; [2]", "result": "> 32", "unit": "mg/L"}, {"measurement": "MIC", "setting": "E. cloacae; [3]", "result": "> 32", "unit": "mg/L"}, {"measurement": "MIC", "setting": "E. faecalis; [4]", "result": "> 32", "unit": "mg/L"}, {"measurement": "MIC", "setting": "E. faecalis; [5]", "result": "> 32", "unit": "mg/L"}, {"measurement": "MIC", "setting": "Staphylococcus aureus; [6]", "result": "> 32", "unit": "mg/L"}, {"measurement": "MIC", "setting": "Staphylococcus aureus; Staphylococcus aureus, ATCC33591, S. aureus ATCC 33591, read-out: MIC", "result": 2, "unit": "mg/L"}, {"measurement": "MIC", "setting": "Staphylococcus aureus; [7]", "result": "> 32", "unit": "mg/L"}, {"measurement": "MIC", "setting": "Staphylococcus aureus; [8]", "result": "> 32", "unit": "mg/L"}, {"measurement": "MIC", "setting": "Staphylococcus aureus; [9]", "result": "> 32", "unit": "mg/L"}, {"measurement": "MIC", "setting": "P. aeruginosa; [10]", "result": "> 32", "unit": "mg/L"}, {"measurement": "MIC", "setting": "P. aeruginosa; [11]", "result": "> 32", "unit": "mg/L"}, {"measurement": "MIC", "setting": "E. aerogenes; [12]", "result": "> 32", "unit": "mg/L"}]}, {"compound": "NC(C(=O)NC1C(=O)N2C(C(=O)O)=C(COc3cc(Cl)ccc3Oc3ccc(Cl)cc3Cl)CS[C@H]12)c1ccc(O)cc1", "note": "(stereo partly drawn) [Compound 41, 3-(2-(2,4-Dichlorophenoxy)-5-chlorophenoxy)methyl-7-[2-amino-2-(4-hydroxy-phenyl)acetamido)-3-cephem-4-carboxylic acid]", "values": [{"measurement": "MIC", "setting": "K. pneumoniae; [1]", "result": 8, "unit": "mg/L"}, {"measurement": "MIC", "setting": "K. pneumoniae; [2]", "result": 8, "unit": "mg/L"}, {"measurement": "MIC", "setting": "E. cloacae; [3]", "result": 1, "unit": "mg/L"}, {"measurement": "MIC", "setting": "E. faecalis; [4]", "result": 32, "unit": "mg/L"}, {"measurement": "MIC", "setting": "E. faecalis; [5]", "result": 32, "unit": "mg/L"}, {"measurement": "MIC", "setting": "Staphylococcus aureus; [6]", "result": 0.063, "unit": "mg/L"}, {"measurement": "MIC", "setting": "Staphylococcus aureus; [7]", "result": 0.063, "unit": "mg/L"}, {"measurement": "MIC", "setting": "Staphylococcus aureus; [8]", "result": 0.063, "unit": "mg/L"}, {"measurement": "MIC", "setting": "Staphylococcus aureus; [9]", "result": 0.063, "unit": "mg/L"}, {"measurement": "MIC", "setting": "P. aeruginosa; [10]", "result": "> 32", "unit": "mg/L"}, {"measurement": "MIC", "setting": "P. aeruginosa; [11]", "result": "> 32", "unit": "mg/L"}, {"measurement": "MIC", "setting": "E. coli N; Escherichia coli, read-out: MIC", "result": 0.25, "unit": "mg/L"}, {"measurement": "MIC", "setting": "E. aerogenes; [12]", "result": 4, "unit": "mg/L"}]}, {"compound": "3-(2-(2,4-Dichlorophenoxy)-5-chlorophenoxy)methyl-7-[4-(2-aminothiazole)-yl-2-acetamido]-3-cephem-4-carboxylic acid [Compound 39]", "values": [{"measurement": "MIC", "setting": "K. pneumoniae; K. pneumoniae ATCC 51503", "result": 16, "unit": "mg/L"}, {"measurement": "MIC", "setting": "E. faecalis; E. faecalis ATCC 49757", "result": 16, "unit": "mg/L"}, {"measurement": "MIC", "setting": "Staphylococcus aureus; S. aureus ATCC 700260", "result": 0.002, "unit": "mg/L"}, {"measurement": "MIC", "setting": "Staphylococcus aureus; S. aureus ATCC 700699", "result": 4.0, "unit": "mg/L"}, {"measurement": "MIC", "setting": "P. aeruginosa; P. aeruginosa ATCC 21726", "result": ">16", "unit": "mg/L"}, {"measurement": "MIC", "setting": "E. coli/TEM-1", "result": 0.063, "unit": "mg/L"}, {"measurement": "MIC", "setting": "E. coli N", "result": 1, "unit": "mg/L"}, {"measurement": "MIC", "setting": "E. aerogenes; E. aerogenes ATCC 35028", "result": ">16", "unit": "mg/L"}]}, {"compound": "C[C@@H](O)[C@H]1C(=O)N2C(C(=O)O)=C(SCCN=CN)C[C@H]12", "note": "[Imipenem, reference compound]", "values": [{"measurement": "MIC range", "setting": "K. pneumoniae; K. pneumoniae (5)", "result": "0.063 to 8", "unit": "mg/L"}, {"measurement": "MIC", "setting": "K. pneumoniae; Klebsiella pneumoniae, K. pneumoniae (5), read-out: GM* MIC (geometric mean)", "result": 0.46, "unit": "mg/L"}, {"measurement": "MIC range", "setting": "E. cloacae; E. cloacae (1)", "result": 0.0078, "unit": "mg/L"}, {"measurement": "MIC", "setting": "E. cloacae; Enterobacter cloacae, E. cloacae (1), read-out: GM* MIC (geometric mean)", "result": 0.0078, "unit": "mg/L"}, {"measurement": "MIC range", "setting": "E. aerogenes; E. aerogenes (5)", "result": "0.5 to 1", "unit": "mg/L"}, {"measurement": "MIC", "setting": "E. aerogenes; Klebsiella aerogenes, E. aerogenes (5), read-out: GM* MIC (geometric mean)", "result": 0.66, "unit": "mg/L"}]}, {"compound": "CON=C(C(=O)NC1C(=O)N2C(C(=O)O)=C(COc3cc(Cl)ccc3Oc3ccc(Cl)cc3Cl)CSC12)c1csc(N)n1", "note": "(stereo not drawn) [Compound 44]", "values": [{"measurement": "MIC", "setting": "K. pneumoniae; K. pneumoniae ATCC 51503", "result": 8, "unit": "mg/L"}, {"measurement": "MIC", "setting": "K. pneumoniae; K. pneumoniae ATCC 700721", "result": 8, "unit": "mg/L"}, {"measurement": "MIC", "setting": "E. cloacae; E. cloacae ATCC 23355", "result": 4, "unit": "mg/L"}, {"measurement": "MIC", "setting": "E. faecalis; E. faecalis ATCC 49757", "result": 32, "unit": "mg/L"}, {"measurement": "MIC", "setting": "E. faecalis; E. faecalis ATCC 700802", "result": 32, "unit": "mg/L"}, {"measurement": "MIC", "setting": "Staphylococcus aureus; S. aureus ATCC 11632", "result": 0.5, "unit": "mg/L"}, {"measurement": "MIC", "setting": "Staphylococcus aureus; S. aureus ATCC 33594", "result": 0.063, "unit": "mg/L"}, {"measurement": "MIC", "setting": "Staphylococcus aureus; S. aureus ATCC 700260", "result": 0.063, "unit": "mg/L"}, {"measurement": "MIC", "setting": "Staphylococcus aureus; S. aureus ATCC 700699", "result": ">32", "unit": "mg/L"}, {"measurement": "MIC", "setting": "P. aeruginosa; P. aeruginosa ATCC 21726", "result": ">32", "unit": "mg/L"}, {"measurement": "MIC", "setting": "P. aeruginosa; P. aeruginosa ATCC 29872", "result": ">32", "unit": "mg/L"}, {"measurement": "MIC", "setting": "E. aerogenes; E. aerogenes ATCC 35028", "result": ">32", "unit": "mg/L"}]}, {"compound": "3-(2-(2,4-Dichlorophenoxy)-5-chlorophenoxy)methyl-7-(1-phenyl-2-aminoacetamido)-3-cephem-4-carboxylic acid [Compound 37]", "values": [{"measurement": "MIC", "setting": "K. pneumoniae; K. pneumoniae ATCC 700721", "result": 8, "unit": "mg/L"}, {"measurement": "MIC", "setting": "Staphylococcus aureus; S. aureus ATCC 700260", "result": 0.0039, "unit": "mg/L"}, {"measurement": "MIC", "setting": "P. aeruginosa; P. aeruginosa ATCC 21726", "result": ">16", "unit": "mg/L"}, {"measurement": "MIC", "setting": "E. coli/TEM-1", "result": 0.12, "unit": "mg/L"}, {"measurement": "MIC", "setting": "E. coli N", "result": 4, "unit": "mg/L"}]}]}
